Literature values, collected in patent US20030158162A1, “Methods of treating ophthalmic disorders with epoxy-steroidal aldosterone receptor antagonists” (priority 2001, published 2003).

Conditions: Klin Monatsbl Augenheilkd 176(3):445-6 (1980)

SMILES: CC(=O)S[C@@H]1CC2=CC(=O)CC[C@]2(C)[C@H]2CC[C@@]3(C)[C@@H](CC[C@@]34CCC(=O)O4)[C@H]12 [Spironolactone]
- effect on IOP in glaucoma patients: lower IOP
